Experimental data from PubChem BioAssay AID248 (DTP/NCI, 2004).
Where “and” joins values, the source holds several entries; their conditions need not be identical. Equal entries are not always repeated. Inconclusive results and toxic doses are left out. Rule as the data show it: active = T/C of 150% or more; inactive = T/C below 125%.

Test system: L1210 leukemia ip in BDF1 mice, survival T/C
Assay: NCI In Vivo Anticancer Drug Screen. Data for tumor model L1210 Leukemia (intraperitoneal) in B6D2F1 (BDF1) mice
Conditions: endpoint: mean survival time, higher = longer survival
Outline: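 Each compound was tested against a transplantable tumor grown in mice. The endpoint was survival, with treated animals benchmarked against vehicle controls as a simple ratio.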

[1] = dose: 100.0 mg/kg/injection, schedule: Q04DX003 (ip), vehicle: saline with Tween-80
[2] = dose: 100.0 mg/kg/injection, schedule: Q01DX001 (ip), vehicle: saline
[3] = dose: 200.0 mg/kg/injection, schedule: Q01DX001 (ip), vehicle: saline
[4] = dose: 400.0 mg/kg/injection, schedule: Q01DX001 (ip), vehicle: saline
[5] = dose: 100.0 mg/kg/injection, schedule: Q01DX001 (ip), vehicle: saline with Tween-80
[6] = dose: 200.0 mg/kg/injection, schedule: Q01DX001 (ip), vehicle: saline with Tween-80
[7] = dose: 400.0 mg/kg/injection, schedule: Q01DX001 (ip), vehicle: saline with Tween-80
[8] = dose: 100.0 mg/kg/injection, schedule: Q01DX001 (ip), vehicle: Klucel (hydroxypropylcellulose) (HPC)
[9] = dose: 200.0 mg/kg/injection, schedule: Q01DX001 (ip), vehicle: Klucel (hydroxypropylcellulose) (HPC)
[10] = dose: 400.0 mg/kg/injection, schedule: Q01DX001 (ip), vehicle: Klucel (hydroxypropylcellulose) (HPC)
[11] = dose: 100.0 mg/kg/injection, schedule: Q04DX003 (ip), vehicle: Klucel (hydroxypropylcellulose) (HPC)

Measured: T/C

COC(=O)c1ccccc1C[P+](c1ccccc1)(c1ccccc1)c1ccccc1
inactive: dose: 0.75 mg/kg/injection, schedule: Q01DX001 (ip), vehicle: saline with Tween-80 90 % of control | dose: 0.75 mg/kg/injection, schedule: Q01DX009 (ip), vehicle: saline 91 % of control | dose: 0.75 mg/kg/injection, schedule: Q04DX003 (ip), vehicle: saline 108 % of control | dose: 1.5 mg/kg/injection, schedule: Q01DX001 (ip), vehicle: saline with Tween-80 101 % of control | dose: 1.5 mg/kg/injection, schedule: Q01DX009 (ip), vehicle: saline 102 % of control | dose: 1.5 mg/kg/injection, schedule: Q04DX003 (ip), vehicle: saline 106 % of control | dose: 3.0 mg/kg/injection, schedule: Q01DX001 (ip), vehicle: saline with Tween-80 100 % of control and 106 % of control | dose: 3.0 mg/kg/injection, schedule: Q01DX009 (ip), vehicle: saline 94 % of control | dose: 3.0 mg/kg/injection, schedule: Q04DX003 (ip), vehicle: saline 116 % of control | dose: 3.12 mg/kg/injection, schedule: Q01DX009 (ip), vehicle: saline 100 % of control and 106 % of control | dose: 6.0 mg/kg/injection, schedule: Q01DX001 (ip), vehicle: saline with Tween-80 101 % of control | dose: 6.25 mg/kg/injection, schedule: Q01DX009 (ip), vehicle: saline with Tween-80 97 % of control and 111 % of control | dose: 6.25 mg/kg/injection, schedule: Q01DX009 (ip), vehicle: saline 100 % of control and 91 % of control | dose: 12.5 mg/kg/injection, schedule: Q04DX002 (ip), vehicle: Klucel (hydroxypropylcellulose) (HPC) 102 % of control | dose: 25.0 mg/kg/injection, schedule: Q01DX001 (ip), vehicle: saline with Tween-80 98 % of control | dose: 25.0 mg/kg/injection, schedule: Q04DX002 (ip), vehicle: Klucel (hydroxypropylcellulose) (HPC) 88 % of control | dose: 25.0 mg/kg/injection, schedule: Q04DX002 (ip), vehicle: saline with Tween-80 104 % of control and 88 % of control | dose: 50.0 mg/kg/injection, schedule: Q01DX001 (ip), vehicle: saline with Tween-80 106 % of control | dose: 50.0 mg/kg/injection, schedule: Q04DX002 (ip), vehicle: Klucel (hydroxypropylcellulose) (HPC) 102 % of control

NP(=S)(Oc1ccc(Cl)cc1)Oc1ccc(Cl)cc1
inactive: dose: 6.25 mg/kg/injection, schedule: Q01DX009 (ip), vehicle: gum acacia 103 % of control | dose: 12.5 mg/kg/injection, schedule: Q01DX009 (ip), vehicle: gum acacia 110 % of control | dose: 12.5 mg/kg/injection, schedule: Q04DX002 (ip), vehicle: gum acacia 87 % of control | dose: 25.0 mg/kg/injection, schedule: Q01DX009 (ip), vehicle: gum acacia 100 % of control | dose: 25.0 mg/kg/injection, schedule: Q04DX002 (ip), vehicle: gum acacia 87 % of control | dose: 100.0 mg/kg/injection, schedule: Q04DX002 (ip), vehicle: saline 93 % of control | dose: 200.0 mg/kg/injection, schedule: Q04DX002 (ip), vehicle: saline 101 % of control | dose: 400.0 mg/kg/injection, schedule: Q04DX002 (ip), vehicle: saline 96 % of control

CCOC(=O)c1ccc(NCc2cnc(N)c(C#N)n2)cc1
inactive: [1] 91 % of control | dose: 200.0 mg/kg/injection, schedule: Q04DX003 (ip), vehicle: saline with Tween-80 95 % of control | dose: 400.0 mg/kg/injection, schedule: Q04DX003 (ip), vehicle: saline with Tween-80 95 % of control

CC(OC(=O)CF)C(C)OC(=O)CF (stereo unspecified)
inactive: dose: 0.5 mg/kg/injection, schedule: Q01DX001 (ip), vehicle: carboxymethylcellulose (CMC) 110 % of control | dose: 1.0 mg/kg/injection, schedule: Q01DX001 (ip), vehicle: carboxymethylcellulose (CMC) 94 % of control | dose: 2.0 mg/kg/injection, schedule: Q01DX001 (ip), vehicle: carboxymethylcellulose (CMC) 108 % of control | dose: 4.0 mg/kg/injection, schedule: Q01DX001 (ip), vehicle: carboxymethylcellulose (CMC) 100 % of control | dose: 8.0 mg/kg/injection, schedule: Q01DX001 (ip), vehicle: carboxymethylcellulose (CMC) 108 % of control

CCCCCCCC[Si](Br)(CCCCCCCC)CCCCCCCC
inactive: dose: 75.0 mg/kg/injection, schedule: Q01DX001 (ip), vehicle: acetone 98 % of control | dose: 150.0 mg/kg/injection, schedule: Q01DX001 (ip), vehicle: acetone 93 % of control | dose: 300.0 mg/kg/injection, schedule: Q01DX001 (ip), vehicle: acetone 96 % of control

C=Cc1ccc(O)cc1
inactive: [2] 103 % of control | [3] 106 % of control | [4] 98 % of control

O=C(CCc1ccccc1)NC1CCCCC1
inactive: dose: 12.5 mg/kg/injection, schedule: Q01DX001 (ip), vehicle: Klucel (hydroxypropylcellulose) (HPC) 104 % of control | dose: 12.5 mg/kg/injection, schedule: Q04DX003 (ip), vehicle: saline 88 % of control | dose: 25.0 mg/kg/injection, schedule: Q01DX001 (ip), vehicle: Klucel (hydroxypropylcellulose) (HPC) 104 % of control | dose: 25.0 mg/kg/injection, schedule: Q04DX003 (ip), vehicle: saline 88 % of control | dose: 50.0 mg/kg/injection, schedule: Q01DX001 (ip), vehicle: Klucel (hydroxypropylcellulose) (HPC) 98 % of control | dose: 50.0 mg/kg/injection, schedule: Q04DX003 (ip), vehicle: saline 93 % of control

CCCCCCCCCCP(=O)(CCCCCCCCCC)C(O)C(Cl)(Cl)Cl (stereo unspecified)
inactive: [5] 91 % of control | [6] 93 % of control | [7] 94 % of control

O=C(O)/C(Br)=C\c1ccc(Br)o1
inactive: dose: 50.0 mg/kg/injection, schedule: Q01DX009 (ip), vehicle: Klucel (hydroxypropylcellulose) (HPC) 97 % of control | dose: 100.0 mg/kg/injection, schedule: Q01DX009 (ip), vehicle: Klucel (hydroxypropylcellulose) (HPC) 94 % of control | dose: 100.0 mg/kg/injection, schedule: Q04DX002 (ip), vehicle: Klucel (hydroxypropylcellulose) (HPC) 97 % of control | dose: 200.0 mg/kg/injection, schedule: Q01DX009 (ip), vehicle: Klucel (hydroxypropylcellulose) (HPC) 97 % of control | dose: 200.0 mg/kg/injection, schedule: Q04DX002 (ip), vehicle: Klucel (hydroxypropylcellulose) (HPC) 90 % of control

COC(=O)c1cc(=O)n(C)c2ccc(OC)cc12
inactive: [5] 101 % of control | [6] 103 % of control | [7] 109 % of control

CC(=O)Nc1ncn[nH]1
inactive: dose: 50.0 mg/kg/injection, schedule: Q01DX001 (ip), vehicle: saline 98 % of control | [2] 98 % of control | [3] 101 % of control | [4] 101 % of control

CCOC(=O)c1nc2c(C)nc(N)nc2[nH]c1=O
inactive: [8] 107 % of control | [9] 111 % of control | [10] 96 % of control

C/C(=C/c1c(C)c([N+](=O)[O-])c(C)c(C)c1[N+](=O)[O-])C(=O)O
inactive: [8] 100 % of control | [11] 114 % of control | [9] 91 % of control | dose: 200.0 mg/kg/injection, schedule: Q04DX003 (ip), vehicle: Klucel (hydroxypropylcellulose) (HPC) 97 % of control | [10] 107 % of control | dose: 400.0 mg/kg/injection, schedule: Q04DX003 (ip), vehicle: Klucel (hydroxypropylcellulose) (HPC) 101 % of control

O=C(CBr)c1ccc(/C=C/c2ccc(Cl)cc2)cc1
inactive: dose: 100.0 mg/kg/injection, schedule: Q01DX009 (ip), vehicle: saline with Tween-80 94 % of control

Cc1nc2nc(Cl)c(Cl)nc2[nH]1
inactive: dose: 25.0 mg/kg/injection, schedule: Q04DX003 (ip), vehicle: saline with Tween-80 92 % of control | dose: 50.0 mg/kg/injection, schedule: Q04DX003 (ip), vehicle: saline with Tween-80 97 % of control | [11] 102 % of control | [1] 89 % of control
